Experiment in all cases: MTT inhibition test against cell growth
For orientation: Formazan colour is commonly taken as a measure of viable cells.

One assay relates to HL-7702. It counts as cell-based. As to the method: (§1) The test selected human ovarian cancer cell SK-OV-3, liver cancer cell Hep-G2, gastric cancer cell MGC-803, bladder cancer cell T-24, cervical cancer cell HeLa-229, human large cell lung cancer cell NCI-H460 and human normal liver cell HL-7702, and all the used cell lines were placed in an RPMI-1640 or high-sugar DMEM culture solution containing 1% penicillin-streptomycin and 10% newborn fetal calf serum and cultured in an incubator at 37 °C and 5% CO2. The growths of the cells were observed discontinuously by an inverted microscope, and the culture solution was replaced periodically or digestion subcultured with 0.25% trypsin according to actual situations. […] The compounds each were formulated into 20 µmol/L of a solution, DMSO is used as a cosolvent with a final concentration of ≤1%; at the concentration, the inhibition degrees of the compounds against the growth of tumor cells were tested. […] After the individual tumor cells were attached to the wall, the working solutions of the tested compounds were added, and each compound is provided with quintuple holes in parallel whilst a corresponding control group (with a culture solution only containing tumor cells and the same equivalent of DMSO but without the tested compounds) is provided. […] The following equitation was utilized: […]

The test system of the next assay is NCI-H460. The format is cell-based. The settings on record: human large cell lung cancer cell NCI-H460, 48 hours. The protocol:
as §1

For a further assay, the system named is MGC-803. The format is cell-based, human. The conditions noted are these: gastric cancer cell MGC-803, 48 hours. As to the method:
as §1

In the next assay the test system is HeLa-229. It counts as cell-based, human. The conditions noted are these: cervical cancer cell HeLa-229, 48 hours. The protocol:
as §1

Another assay deals with T-24. It counts as cell-based, human. The conditions noted are these: bladder cancer cell T-24, 48 hours. As to the method:
as §1

A further assay relates to HepG-2. It counts as cell-based, human. As to the method:
as §1

The mark [1] stands for this setting: L02, human normal liver cell HL-7702, 48 hours.
[2] abbreviates: Homo sapiens, HepG2, liver cancer cell HepG-2, 48 hours.

The results in this text go back to patent publication EP3816157A1 (Guangxi Normal University, priority 2019, dated 2021).

Consider `O=S(=O)(O)c1ccc(N=Cc2c3ccccc3c(C=NNC3=NCCN3)c3ccccc23)cc1` [9-benzenesulfonic acid-10-imidazolylanthrahydrazone], for which the IC50 in the assay on HL-7702 (setting [1]) was found to be 11.3 ± 0.71 µM; with NCI-H460, 14.5 ± 1.42 µM; with MGC-803 (Homo sapiens), 9.48 ± 0.68 µM; in the assay on HeLa-229 (Homo sapiens), 10.5 ± 1.52 µM; with T-24 (Homo sapiens) it was 10.7 ± 0.56 µM; in the assay with HepG-2 (setting [2]) it was 12.7 ± 1.56 µM.
With `O=Cc1c2ccccc2c(C=NNC2=NCCN2)c2ccccc12` [9-formyl-10-imidazolylanthrahydrazone], the IC50 in the assay on HL-7702 (setting [1]) was 16.4 ± 2.78 µM; in the assay with NCI-H460, 16.1 ± 1.4 µM; in the assay on MGC-803 (Homo sapiens), 18.8 ± 0.5 µM; with HeLa-229 (Homo sapiens), over 20 µM; in the assay on T-24 (Homo sapiens) it was 13.9 ± 1.46 µM; in the assay with HepG-2 (setting [2]), 15.1 ± 1.69 µM.
For the molecule `N.N.[Cl][Pt][Cl]` [cisplatin], the IC50 in the assay with HL-7702 (human normal liver cell HL-7702, 48 hours) turned out to be 12.7 ± 1.27 µM; in the assay on NCI-H460 it was 18.3 ± 1.02 µM; in the assay with MGC-803, 17.8 ± 2.5 µM; in the assay with HeLa-229, 13.2 ± 2.74 µM; in the assay with T-24 it was 14.8 ± 2.74 µM; in the assay on HepG-2 (liver cancer cell HepG-2, 48 hours), 18.6 ± 0.78 µM.

In general, IC50 refers to the midpoint of a concentration-inhibition curve.
